The mortality is the percentage killed.

The results in this text go back to US20250160330A1, “METHOD FOR CONTROLLING HARMFUL ARTHROPODS OR HARMFUL NEMATODES USING ZOANTHAMINE ANALOG” (SUMITOMO CHEMICAL COMPANY, LIMITED, priority 2022, published 2025).

Where two headings read alike, the source gives them in different places. Where only a bound is given, the exact number is not on record here.

Assay [1] relates to cotton worm (Spodoptera litura). Nature of the assay: Test method 1: foliar spray on cabbage seedling, cotton worm larvae. To be noted: 144 h, read-out: mortality of insects. The format is in vivo. On the procedure: The test compounds are made to a formulation according to a similar method to that described in the Formulation Example 5, and thereto is added water containing 0.03 v/v % of Shindain (registered trademark) to prepare a diluted solution containing a prescribed concentration of the test compound.
(§1) Cabbage (Brassicae oleracea) seedling (on the developmental stage of the third to fourth true leaf) is planted in a cup, and the diluted solutions are sprayed into the seedling at a ratio of 20 mL/seedling. Thereafter, ten (10) cotton worm (Spodoptera litura) at the third instar larval stage are released. After 6 days, the number of the surviving insects is counted, and the mortality of insects is calculated by the following equation.

The subject of assay [2] is cotton aphids (Aphis gossypii). The assay is described as follows: Test method 3: foliar spray on cucumber seedling infested with cotton aphids. The settings on record: read-out: mortality of insects.
The subject of assay [3] is northern house mosquitos (Culex pipiens pipiens). The assay is described as follows: Test method 8: coated container contact test, northern house mosquito female adults. The format is in vivo. The settings on record: 24 h, read-out: mortality of insects. On the procedure:
The test compounds are dissolved with acetone containing a surfactant, and the solution was then poured into a container of 20 mL contents, and the solution was coating uniformly in the inner face of the container such that the test compound is made 10 mg/m^2, and the surfactant is made 40 mg/m^2, and the container is dried.
Five (5) of female adult of northern house mosquitos (Culex pipiens pipiens) are placed in the contained, and the contained is put the lid. After the passing of the prescribed times, the state of the northern house mosquitos are examined, and the mortality is calculated by the following equation.

Assay [4] concerns silverleaf whiteflies (Bemisia tabaci). Nature of the assay: Test method 6: foliar spray on tomato seedling with silverleaf whitefly larvae. To be noted: in Solanum lycopersicum, 168 h, read-out: mortality of insects.
Assay [5] concerns brown planthoppers (Nilaparvata lugens). The assay is described as follows: Test method 4: foliar spray on rice seedling, brown planthopper larvae. The format is in vivo. The settings on record: 144 h, read-out: mortality of insects. The method, then:
(§2) Test compounds are made to a formulation according to a similar method to that described in the Formulation Example 5, and thereto is added water containing 0.03 v/v % of Shindain (registered trademark) to prepare a diluted solution containing a prescribed concentration of the test compound.
Rice (Oryza sativa) seedling (on the developmental stage of the second true leaf) is planted in a cup, and the diluted solutions are sprayed into the seedling at a ratio of 10 mL/seedling. Thereafter, twenty (20) of 3rd instar larvae of brown planthoppers (Nilaparvata lugens) are released onto the rice leaves. After 6 days, the number of the surviving insects is examined and the mortality of insects is calculated by the following equation.

The test system of assay [6] is cotton worm (Spodoptera litura). The assay is described as follows: Test method 2: foliar spray on cabbage seedling, cotton worm larvae. The format is in vivo. To be noted: 144 h, read-out: mortality of insects. The method, then: as §2, §1
The test system of assay [7] is western flower thrips (Frankliniella occidentalis). The assay is described as follows: Test method 5: sprayed cucumber leaf, western flower thrips larvae. The format is in vivo. To be noted: 144 h, read-out: mortality of insects. On the procedure: as §2
Cucumber (Cucumber sativus) seedling (on the developmental stage of the second true leaf) is planted in a cup, and the diluted solutions are sprayed into the seedling at a ratio of 10 mL/seedling. Thereafter, the second true leaf is cut, and the cut leaf was placed in the cup, and approximately twenty (20) of larvae of western flower thrips (Frankliniella occidentalis) larvae are released onto the leaf. After 6 days, the number of the surviving insects is examined and the mortality of insects is calculated by the following equation.

Assay [8] has as its system southern root-knot nematode (Meloidogyne incognita). The assay is described as follows: Test method 7: soil mixing and irrigation, tomato seedlings in nematode-polluted soil, root-knot index by Zeck. To be noted: 1,000 ppm. It counts as in vivo. On the procedure:
Test compounds 60 mg are dissolved in acetone 600 μL containing Tween (Registered trade mark) by 5%, and thereto is added water to prepare a diluted solution containing a prescribed concentration of the test compound.
The diluted solution 20 mL are soil which is polluted with southern root-knot nematode (Meloidogyne incognita) 400 mL are mixed, and a root of healthy tomato seedlings (on the developmental stage of third to fourth true leaf) is transplanted in the soil. After the transplanting, the diluted solution 40 mL is irrigated onto soli of tomato seedlings. After 10 days, the roots are pull out from the soil, washed and the damage degree of the root (root-knot degree) is examined according to a root-knot index by Zeck (Zeck, W. M. (1971): Pflanzenschutz-Nachrichten. Bayer AG, 24, 141-144).
• 0: No root-knots is recognized. • 1: By careful observation, several small root-knots can be recognized. • 2: Several small root-knots can be easily confirmed similarly to 1. • 3: Many small root-knots are found, and some of which are fused. A function of the root is not almost lost. • 4: Many small root-knots are found, and some large ones are found. […]

Consider `CC[C@H]1C(=O)[C@H]2[C@@](C)(C[C@@]34OC(=O)C[C@]2(C)[C@]3(C)CC[C@]23C[C@@H](C)C[C@H](CN24)O3)[C@@H]2CC(C)=CC(=O)[C@H]21` [AA-3], for which the mortality at 200 ppm is no less than 80% in assay [1]; no less than 90% in assay [2]; no less than 90% in assay [4]; no less than 90% in assay [5]; no less than 80% in assay [6]. Also, the mortality at 10 mg/m2 in assay [3] was no less than 80%.
In the case of `CC1=CC(=O)[C@@H]2[C@@H](C1)[C@]1(C)C[C@@]34OC(=O)C[C@@](C)([C@H]1C(=O)[C@@H]2CO)[C@]3(C)CCC12C[C@@H](C)C[C@H](CN14)O2` [A-1], the mortality at 200 ppm in assay [1] is no less than 80%; in assay [2], no less than 90%; in assay [4] it was no less than 90%; in assay [5], no less than 90%; in assay [6] it was no less than 80%.
For `CC1=CC(=O)[C@@H]2[C@@H](C1)[C@@]1(C)[C@H](C(=O)[C@@H]2C)[C@]2(C)CC(=O)O[C@@]3([C@H]1Cl)N1C[C@H]4C[C@H](C)C[C@]1(CC[C@@]23C)O4` [AA-2], the mortality at 200 ppm in assay [1] was no less than 80%; in assay [2] it was no less than 90%; in assay [7] it was no less than 90%; in assay [4], no less than 90%; in assay [5] it was no less than 90%; in assay [6] it was no less than 80%. The mortality at 10 mg/m2 in assay [3] was no less than 80%.
Take `CC1=CC(=O)[C@H]2CC(=O)[C@H]3[C@](C)([C@@H]2C1)[C@H](Cl)[C@@]12OC(=O)C[C@]3(C)[C@]1(C)CC[C@]13C[C@@H](C)C[C@H](CN12)O3` [AA-1]: the mortality at 200 ppm in assay [1] is no less than 80%; in assay [2], no less than 90%; in assay [7], no less than 90%; in assay [4], no less than 90%; in assay [5] it was no less than 90%; in assay [6], no less than 80%. The mortality at 10 mg/m2 in assay [3] is no less than 80%. For the same compound, in assay [8] (20 mL mixed with 400 mL soil plus 40 mL irrigation, tomato seedlings, after 10 days, untreated group index 4), the root-knot index is listed as 1 (By careful observation, several small root-knots can be recognized.). The formation of root-knot result in assay [8] (versus untreated group) is given as “reduced a formation of root-knot”.
Turning to `CC1CC(=O)C2CC(=O)[C@H]3[C@@](C)(CC4=[N+]5C[C@H]6C[C@H](C)C[C@]5(CC[C@@]4(C)[C@@]3(C)CC(=O)O)O6)C2C1` (some centres unmarked) [EE-2], the mortality at 200 ppm is no less than 80% in assay [1]; no less than 90% in assay [2]; no less than 90% in assay [7]; no less than 90% in assay [4]; no less than 90% in assay [5]; no less than 80% in assay [6]. Also, the mortality at 10 mg/m2 in assay [3] is no less than 80%.
With `CC1CC(=O)[C@@H]2[C@@H](C1)[C@]1(C)C[C@@]34OC(=O)C[C@@](C)([C@H]1C(=O)[C@@H]2C)[C@]3(C)CC[C@]12C[C@@H](C)C[C@H](CN14)O2` (some centres unmarked) [A-19], the mortality at 200 ppm in assay [1] is no less than 80%; in assay [2] it was no less than 90%; in assay [7], no less than 90%; in assay [5] it was no less than 90%; in assay [6] it was no less than 80%. Also, the mortality at 10 mg/m2 in assay [3] is no less than 80%.
For `COC(=O)C[C@@]1(C)[C@H]2C(=O)CC3C(=O)CC(C)CC3[C@]2(C)C=C2N3C[C@H]4C[C@H](C)C[C@]3(CC[C@]21C)O4` (some centres unmarked) [EE-1], the mortality at 200 ppm in assay [2] was no less than 90%; in assay [7] (200 ppm, spray 10 mL/seedling on cucumber, cut second true leaf, larvae, after 6 days, 25° C.), no less than 90%; in assay [4], no less than 90%. The mortality at 10 mg/m2 in assay [3] (10 mg/m^2 coated on inner face of container, female adults, after one (1) day, 25° C.) was no less than 80%.
As to `COC(=O)C[C@@]1(C)[C@H]2C(=O)C[C@@H]3C(=O)C=C(C)C[C@H]3[C@]2(C)C=C2N3C[C@H]4C[C@H](C)C[C@]3(CC[C@]21C)O4` [E-1], the mortality at 200 ppm in assay [2] was no less than 90%; in assay [7], no less than 90%; in assay [4], no less than 90%; in assay [5], no less than 90%; in assay [6], no less than 80%. Moreover, the mortality at 10 mg/m2 in assay [3] was no less than 80%.
